The text below walks through data of ChEMBL document CHEMBL1201862, “PubChem BioAssay data set” (2004).

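Growth conditions: 96-well plates. Treatment: test compound, 48 hours, 5 concentrations. Analysis: linear interpolation between bracketing concentrations; unreached endpoints set to highest concentration. Here, GI50 denotes the concentration required for 50% inhibition of growth.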 The source made the active and inactive calls. Rule as the data show it: active = GI50 up to about 1.1 µM and inactive = higher. Bounds are passed on as bounds.

Holding throughout (assay): NCI-60 cell line screen, 48 h
For experiment [1], the system named is BT-549.
Experiment [2] deals with HCC 2998.
In experiment [3] the test system is UACC-257.
Experiment [4] concerns MDA-N.
The test system of experiment [5] is Malme-3M.
Experiment [6] deals with MOLT-4.
The subject of experiment [7] is ACHN.
The test system of experiment [8] is SK-MEL-28.
The test system of experiment [9] is OVCAR-4.
The subject of experiment [10] is TK-10.
For experiment [11], the system named is LOX IMVI.
The subject of experiment [12] is K562.
The subject of experiment [13] is IGROV-1.
Experiment [14] relates to EKVX.
In experiment [15] the test system is A498.
Experiment [16] deals with NCI/ADR-RES.
Experiment [17] relates to HCT-15.
Experiment [18] has as its system DU-145.

For the molecule `Nc1ncnc2c1nc(O)n2-c1ccccc1`, the GI50 in [1], in [2], in experiment [3], in [4], in experiment [5] and in experiment [6] was > 100 µM (inactive) in each case. Also, the GI50 in experiment [7], in [8], in experiment [9], in experiment [10], in [11] and in [12] was > 100 µM (inactive) throughout. The GI50 in [13] is > 100 µM (inactive); in experiment [14] it was 93.8 µM (inactive); in experiment [15], > 100 µM (inactive); in [16], > 100 µM (inactive); in experiment [17], more than 100 µM.

For `CC1=NN(C(=O)CSc2nnc(SCC(=O)N3N=C(C)CC3(O)c3ccccc3)s2)C(O)(c2ccccc2)C1` (centres undefined), the GI50 in [1] is 15.5 µM (inactive); in experiment [2], > 100 µM (inactive); in experiment [3], 43.8 µM (inactive); in [4] it was 39.6 µM (inactive); in experiment [5], 99.1 µM (inactive); in experiment [6] it was 32.3 µM (inactive). The GI50 was 34.8 µM (inactive) in experiment [7]; > 100 µM (inactive) in experiment [8]; 32.9 µM (inactive) in experiment [9]; 54.3 µM (inactive) in experiment [10]; 22.8 µM (inactive) in experiment [11]; 32.6 µM (inactive) in [12]. The GI50 in [13] was 25.1 µM (inactive); in [14], 27 µM (inactive); in experiment [15], > 100 µM (inactive); in experiment [16], 27.9 µM (inactive); in experiment [17], 33.2 µM; in [18], 35.5 µM (inactive).

Take `Cc1c2n(c3ccccc13)S(=O)(=O)c1ccccc1-2`: the GI50 in [1] is 39.8 µM (inactive); in experiment [2], > 100 µM (inactive); in [3], > 100 µM (inactive); in experiment [4] it was 34.9 µM (inactive); in experiment [5], 33.1 µM (inactive); in experiment [6], > 100 µM (inactive). Besides, the GI50 is 18.1 µM (inactive) in experiment [7]; > 100 µM (inactive) in experiment [8]; 17.2 µM (inactive) in [9]; 25.6 µM (inactive) in experiment [10]; 44.6 µM (inactive) in [11]; > 100 µM (inactive) in experiment [12]. For the same molecule, the GI50 in [13] is 25.3 µM (inactive); in [14], 6.37 µM (inactive); in experiment [15], 11 µM (inactive); in experiment [16], 28.1 µM (inactive); in experiment [17], 48.1 µM; in experiment [18], 47.2 µM (inactive).

As to `O=c1c2ccccc2nc(N/N=C/c2ccccc2O)n1-c1ccccc1`, the GI50 was 41.5 µM (inactive) in [1]; 5.27 µM (inactive) in experiment [2]; 5.04 µM (inactive) in experiment [3]; 7.64 µM (inactive) in experiment [4]; 12.2 µM (inactive) in [5]; 3.62 µM (inactive) in experiment [7]. Further, the GI50 in experiment [8] is 11.4 µM (inactive); in experiment [9], 5.18 µM (inactive); in experiment [10], 6.43 µM (inactive); in experiment [11], 4.04 µM (inactive); in experiment [12], 4.5 µM (inactive); in [13], 5.6 µM (inactive). Moreover, the GI50 in experiment [15] was > 100 µM (inactive); in experiment [16], 2.27 µM (inactive); in experiment [17] it was 2.97 µM; in experiment [18], 5 µM (inactive).
